In PMC6423129, “Activity and structural analysis of GRL-117C: a novel small molecule CCR5 inhibitor active against R5-tropic HIV-1s” (Scientific Reports, 2019):
Marks after values point to notes of the source that are not given here.

Legend:
pCH0.6.c/2633 = test: MAGI assay, T/F HIV-1 clone pCH0.6.c/2633; type: cell-based; conditions: T/F clone pCH0.6.c/2633, MAGI assay, mean ± SD; read-out: IC50
Description: (§1) We also examined the activity of GRL-compounds against Transmitter/founder (T/F) HIV-1 viruses. T/F viruses are involved in the initial infection. It is considered that T/F viruses virtually always use CCR5 rather than CXCR4 and infect T cells but not macrophages because […] of CD4 is needed to mediate virus entry for the initial transmission[20]–[24]. […] We obtained four HIV-1 T/F infectious clones. We determined the antiviral activity of GRL-117C, GRL-10007C and GRL-10018C on these HIV-1 clones using MAGI assay.
(§2) MAGI-CCR5 cells[18] were maintained in DMEM supplemented with 10% fetal calf serum (FCS: Gemini Bio-Products, West Sacramento, CA), 200 μg/ml G418, 100 μg/ml hygromycin B, and 100 μg/ml zeomycin. The Chinese hamster ovary (CHO) cells expressing CCR5[19] were maintained in Ham’s F-12 medium (GIBCO-BRL, Rockville, MD) supplemented with 10% FCS, 50 U/ml penicillin, and 50 μg/ml streptomycin in the presence of 5 μg/ml blasticidin S hydrochloride. TZM-bl cells were obtained from the NIH AIDS Reagent Program, and were cultured in DMEM with 10% FCS. Peripheral blood mononuclear cells (PBMCs) were isolated from buffy coats of HIV-1 seronegative individuals, and were activated with 10 μg/ml phytohemagglutinin (PHA) prior to use[16]. A laboratory wild-type R5-HIV-1 strain (HIV-1Ba-L)[37] was employed for drug susceptibility assays. AD101 (experimental CCR5 inhibitor) and VVC-resistant HIV clones[7],[8] were provided by Dr. John P. Moore of Cornell University for this study. The clones were propagated with activated PBMCs, and were used for the assays. […] The following reagents (plasmids) for T/F HIV-1 viruses[22],[24] were obtained through the NIH AIDS Reagent Program, Division of AIDS, NIAID, NIH: pCH040.c/2625 (cat# 11740), pCH106.c/2633 (cat# 11743), pTHRO.c/2626 (cat# 11745), and pCH058.c/2960 (cat# 11856), from Dr. John Kappes and Dr. Christina Ochsenbauer.
(§3) Antiviral assays using PHA-PBMCs (p24 assay) were conducted as previously reported[16],[38]. In brief, PHA-PBMCs (1 × 10^6/ml) were exposed to 50 TCID50 of HIV-1Ba-L or drug-resistant HIV-1 infectious clones in the presence or absence of various concentrations of drugs; 10-fold serial dilutions were performed in 96-well microculture plates. The amount of p24 antigens produced by the cells was determined on day 7 in the culture via a commercially available ELISA kit (PerkinElmer). The p24 production level in drug-free control cell cultures was used as the reference. […] Antiviral assays using MAGI-CCR5 cells (MAGI assay) were conducted as previously reported[16],[39]. Single-round virus infection assays using TZM-bl cells infected with R5-HIV-1s (HIV-1YU2, HIV-1KP-5pc, and HIV-1KP-5mvcR)[10] were also conducted as previously described.

R5-HIV-1BaL = test: p24 assay using PBMCs and R5-HIV-1BaL; type: cell-based; conditions: Ba-L (PBMCs), day 7
Experimental: (§4) MAGI-CCR5 cells[18] were maintained in DMEM supplemented with 10% fetal calf serum (FCS: Gemini Bio-Products, West Sacramento, CA), 200 μg/ml G418, 100 μg/ml hygromycin B, and 100 μg/ml zeomycin. The Chinese hamster ovary (CHO) cells expressing CCR5[19] were maintained in Ham’s F-12 medium (GIBCO-BRL, Rockville, MD) supplemented with 10% FCS, 50 U/ml penicillin, and 50 μg/ml streptomycin in the presence of 5 μg/ml blasticidin S hydrochloride. TZM-bl cells were obtained from the NIH AIDS Reagent Program, and were cultured in DMEM with 10% FCS. Peripheral blood mononuclear cells (PBMCs) were isolated from buffy coats of HIV-1 seronegative individuals, and were activated with 10 μg/ml phytohemagglutinin (PHA) prior to use[16]. A laboratory wild-type R5-HIV-1 strain (HIV-1Ba-L)[37] was employed for drug susceptibility assays. AD101 (experimental CCR5 inhibitor) and VVC-resistant HIV clones[7],[8] were provided by Dr. John P. Moore of Cornell University for this study. The clones were propagated with activated PBMCs, and were used for the assays. A clinical HIV-1 strain, HIV-1KP-5pc, and an MVC-resistant isolate, HIV-1KP-5mvcR, were prepared and used for antiviral assays, as previously described[10],[38]. The following reagents (plasmids) for T/F HIV-1 viruses[22],[24] were obtained through the NIH AIDS Reagent Program, Division of AIDS, NIAID, NIH: pCH040.c/2625 (cat# 11740), pCH106.c/2633 (cat# 11743), pTHRO.c/2626 (cat# 11745), and pCH058.c/2960 (cat# 11856), from Dr. John Kappes and Dr. Christina Ochsenbauer.
as §3

HIV-1YU2 = test: TZM-bl single-round infection assay, HIV-1YU2; type: cell-based; conditions: YU2, drug-sensitive, mean ± SD
Experimental: as §4, §3

pTHRO.c/2626 = test: MAGI assay, T/F HIV-1 clone pTHRO.c/2626; type: cell-based; conditions: T/F clone pTHRO.c/2626, MAGI assay, mean ± SD; read-out: IC50
Description: as §1, §2, §3

CC1/85 cl.6 = test: Anti-HIV-1 assay, drug-naive clinical strain CC1/85 cl.6; type: cell-based; conditions: CC1/85 cl.6, drug naive R5-HIV-1 clinical strain; read-out: IC50
Experimental: as §4, §3

[1] = test system: D1/85.16 cl.23 (VVC resistant); test: microbe, parasite or virus in culture; type: cell-based, HIV-1
Experimental: as §4, §3

[2] = test system: CC101.19 cl.7 (AD101 resistant); test: microbe, parasite or virus in culture; type: cell-based, HIV-1
Experimental: as §4, §3

pCH058.c/2960 = test: MAGI assay, T/F HIV-1 clone pCH058.c/2960; type: cell-based; conditions: T/F clone pCH058.c/2960, MAGI assay, mean ± SD; read-out: IC50
Description: as §1, §2, §3

HIV-1KP-5mvcR = test: TZM-bl single-round infection assay, MVC-resistant HIV-1KP-5mvcR; type: cell-based; conditions: KP-5mvcR, MVC-resistant, TZM-bl assay, mean ± SD
Experimental: as §4, §3

R5-HIV-1Ba-L = test: MAGI assay using MAGI/CCR5 cells and R5-HIV-1Ba-L; type: cell-based; conditions: Ba-L (MAGI)
Experimental: as §4, §3

HIV-1KP-5pc = test: TZM-bl single-round infection assay, HIV-1KP-5pc; type: cell-based; conditions: KP-5pc, drug-sensitive clinical strain, TZM-bl assay, mean ± SD
Experimental: as §4, §3

pCH040.c/2625 = test: MAGI assay, T/F HIV-1 clone pCH040.c/2625; type: cell-based; conditions: T/F clone pCH040.c/2625, MAGI assay, mean ± SD; read-out: IC50
Description: as §1, §2, §3

CC1/85 cl.7 = test: Anti-HIV-1 assay, drug-naive clinical strain CC1/85 cl.7; type: cell-based; conditions: CC1/85 cl.7, drug naive R5-HIV-1 clinical strain
Experimental: as §4, §3

[3] = test system: Transmitter/founder (T/F) HIV-1 viruses; test: MAGI assay, all four T/F viruses (range); type: cell-based; conditions: four T/F HIV-1 clones, MAGI assay; read-out: IC50 values (range over four T/F viruses)
Description: as §1
MAGI-CCR5 cells[18] were maintained in DMEM supplemented with 10% fetal calf serum (FCS: Gemini Bio-Products, West Sacramento, CA), 200 μg/ml G418, 100 μg/ml hygromycin B, and 100 μg/ml zeomycin. The Chinese hamster ovary (CHO) cells expressing CCR5[19] were maintained in Ham’s F-12 medium (GIBCO-BRL, Rockville, MD) supplemented with 10% FCS, 50 U/ml penicillin, and 50 μg/ml streptomycin in the presence of 5 μg/ml blasticidin S hydrochloride. TZM-bl cells were obtained from the NIH AIDS Reagent Program, and were cultured in DMEM with 10% FCS. […]
Antiviral assays using PHA-PBMCs (p24 assay) were conducted as previously reported[16],[38]. […] The amount of p24 antigens produced by the cells was determined on day 7 in the culture via a commercially available ELISA kit (PerkinElmer). […]

With Maraviroc [MVC] as the substance, how does the IC50 (pCH0.6.c/2633) read?
The IC50 was 2.3 ± 0.3 nM.

And the IC50 (R5-HIV-1BaL)?
Its IC50 is 4.5 nM.

And the IC90 (R5-HIV-1BaL)?
Its IC90 is 21.6 nM.

And the IC50 (HIV-1YU2)?
Its IC50 is 3.5 ± 2.5 nM.

What about the IC90 (HIV-1YU2) of the same substance?
Its IC90 is 15 nM.

What about the IC50 (pTHRO.c/2626) of the same substance?
Its IC50 is 2.2 ± 0.8 nM.

What about the IC50 (CC1/85 cl.6) of the same substance?
The IC50 was 1.7 nM.

What about the “fold increases of IC50s compared to wild type (CC1/85 cl.7)” value ([1]; D1/85.16 cl.23 (VVC resistant) vs CC1/85 cl.7) of the same substance?
Its value is “(×11)^e fold”.

What about the IC50 ([1]; D1/85.16 cl.23 (VVC resistant), read-out: IC50) of the same substance?
Its IC50 is 26.5 nM.

What about the IC90 ([1]; D1/85.16 cl.23 (VVC resistant), read-out: IC90) of the same substance?
Its IC90 is 376 nM.

What about the “fold increases of IC50s compared to wild type (CC1/85 cl.7)” value ([2]; CC101.19 cl.7 (AD101 resistant) vs CC1/85 cl.7) of the same substance?
Its value is “(×15)^e fold”.

And the IC50 ([2]; CC101.19 cl.7 (AD101 resistant), read-out: IC50)?
Its IC50 is 36.9 nM.

What about the IC90 ([2]; CC101.19 cl.7 (AD101 resistant), read-out: IC90) of the same substance?
The IC90 was 486 nM.

What about the IC50 (pCH058.c/2960) of the same substance?
The IC50 was 1.9 ± 0.1 nM.

And the IC50 (HIV-1KP-5mvcR; read-out: IC50)?
The IC50 was 36 ± 28 nM.

What about the IC90 (HIV-1KP-5mvcR; read-out: IC90 (converted)) of the same substance?
Its IC90 is 236 nM.

What about the IC50 (R5-HIV-1Ba-L) of the same substance?
Its IC50 is 0.7 nM.

What about the IC90 (R5-HIV-1Ba-L) of the same substance?
Its IC90 is 6.4 nM.

What about the IC50 (HIV-1KP-5pc; read-out: IC50) of the same substance?
Its IC50 is 8.5 ± 3.6 nM.

And the IC90 (HIV-1KP-5pc; read-out: IC90 (converted))?
Its IC90 is 81 nM.

What about the IC50 (pCH040.c/2625) of the same substance?
Its IC50 is 1.7 ± 0.1 nM.

What about the IC50 (CC1/85 cl.7; read-out: IC50) of the same substance?
The IC50 was 2.5 nM.

And the IC90 (CC1/85 cl.7; read-out: IC90)?
Its IC90 is 20.6 nM.

What about the IC50 [3] of the same substance?
The IC50 was 1.7 to 2.3 nM.
